pIC50, pKi: −log10 of the molar value. Like-named read-outs stand apart in the source and are kept apart here.
Tests used:
[1] = biological target: recombinant human Adenosine A2A (FAST-002C) receptor (Homo sapiens, UniProt P29274); assay: cAMP HTRF assay, Adenosine A2A receptor, antagonist mode; format: cell-based
[2] = biological target: T1, recombinant human Adenosine A3 (FAST-004C) receptor (Homo sapiens, UniProt P0DMS8); assay: cAMP HTRF assay, Adenosine A3 receptor, antagonist mode; format: cell-based
T1 sequence (P0DMS8 1-318): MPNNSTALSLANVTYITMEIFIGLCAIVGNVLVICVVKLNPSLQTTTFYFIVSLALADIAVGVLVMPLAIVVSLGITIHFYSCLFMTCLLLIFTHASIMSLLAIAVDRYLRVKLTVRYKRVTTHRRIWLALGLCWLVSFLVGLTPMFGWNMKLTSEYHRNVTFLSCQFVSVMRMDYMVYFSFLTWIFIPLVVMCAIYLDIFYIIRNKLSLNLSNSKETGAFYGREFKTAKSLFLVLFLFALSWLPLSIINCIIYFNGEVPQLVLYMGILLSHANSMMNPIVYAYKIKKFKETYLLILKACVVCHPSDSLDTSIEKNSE

[3] = tested on: MDA-MB-468 and ZR51 breast cancer and JHH7 liver cancer cell lines
[4] = tested on: MDA-MB-231 breast cancer cell lines; assay: cytotoxicity, control cells vs cells overexpressing CYP1A1; format: cell-based
Excerpt: The dependence of each compound's cytotoxic effects upon CYP1A1 was also examined, via screening of MDA-MB-231 breast cancer cell lines for cytotoxic response. The CYP1A1-dependence of the cytotoxic response of to each tested compound was specifically determined by comparing the cytotoxicity of each compound administered to control cells with that of the compound administered to corresponding cells that overexpressed CYP1A1. […]

[5] = biological target: T2, recombinant human Adenosine A2B (FAST-003C) receptor (Homo sapiens, UniProt P29275); assay: cAMP HTRF assay, Adenosine A2B receptor, antagonist mode; design: inhibition: dose or concentration left out as unconfirmed; details: for inhibition: HEK293, read-out: % Inhibition Average at maximal concentration; for Hill Coefficient: antagonist mode dose-response fit
T2 sequence (P29275 1-332): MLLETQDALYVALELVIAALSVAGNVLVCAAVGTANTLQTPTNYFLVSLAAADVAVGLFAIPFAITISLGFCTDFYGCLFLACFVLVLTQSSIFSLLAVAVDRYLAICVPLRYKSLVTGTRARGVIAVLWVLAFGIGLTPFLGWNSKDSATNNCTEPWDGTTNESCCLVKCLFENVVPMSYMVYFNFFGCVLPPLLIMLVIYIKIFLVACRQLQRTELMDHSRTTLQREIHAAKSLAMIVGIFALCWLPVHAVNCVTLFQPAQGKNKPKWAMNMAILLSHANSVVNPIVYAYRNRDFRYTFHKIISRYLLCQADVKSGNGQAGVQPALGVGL

[6] = biological target: T3, recombinant human Adenosine A1 (FAST-001C) receptor (Homo sapiens, UniProt P30542); assay: cAMP HTRF assay, Adenosine A1 receptor, antagonist mode; design: inhibition: dose or concentration left out as unconfirmed; details: for inhibition: CHO-K1, read-out: % Inhibition Average at maximal concentration; for Hill Coefficient: antagonist mode dose-response fit
T3 sequence (P30542 1-326): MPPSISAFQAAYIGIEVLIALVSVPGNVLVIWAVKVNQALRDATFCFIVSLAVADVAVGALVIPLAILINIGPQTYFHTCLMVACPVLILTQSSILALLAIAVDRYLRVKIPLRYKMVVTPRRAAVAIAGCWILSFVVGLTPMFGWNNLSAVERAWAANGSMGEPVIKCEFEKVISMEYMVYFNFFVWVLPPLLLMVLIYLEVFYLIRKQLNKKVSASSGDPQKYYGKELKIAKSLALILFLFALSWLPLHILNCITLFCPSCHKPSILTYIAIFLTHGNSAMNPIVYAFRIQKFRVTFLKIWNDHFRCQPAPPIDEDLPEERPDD

[7] = tested on: ZR-75-1 breast cancer cells; assay: Synergy/antagonism testing; format: cell-based; details: co-treatment with CGS-15943, 120H; FIG. 14
Protocol: 1000 cells per well were seeded in 384 well clear bottom tissue culture plates and incubated overnight at 37° C. and 4% CO2. The following day, compounds were dispensed in a combination grid format using the Tecan Digital Dispenser. Plates were incubated for 5 days and then viability was assayed using CellTiter-Glo® Cellular Viability Assay. Analysis and Synergy plots were generated using the publicly available Combenefit software package.
AHR has been previously described to bind a range of endogenous and exogenous aromatic ligands (Denison et al. Tox. Sci. 2004, see Table 2), resulting in the formation of a nuclear heterodimer with ARNT. The dimer then binds dioxin-responsive elements and drives gene expression, after nuclear translocation. AHR has been described to bind a wide range of aromatic substrates including agonists, antagonists, and modulators.

[8] = tested on: Twelve different breast cancer cell lines; assay: adenosine receptor antagonists and agonists dosed on twelve breast cancer cell lines; format: cell-based; details: 32 adenosine receptor antagonists/agonists compared; FIG. 6B
A3 receptors = biological target: T4, A3 receptors (Homo sapiens, UniProt P0DMS8); details: previously characterized; cited from earlier work
T4 sequence (P0DMS8 1-318): T1 sequence (P0DMS8 1-318)

578 cancer cell lines = assay: PRISM multiplexed cellular viability screening; format: cell-based; details: relation to FOXA1 / FOXA1 target expression across cell lines
Protocol: The instant discovery was made using large-scale multiplex profiling of existing drugs against 578 cancer cell lines, employing a PRISM multiplexed cellular viability assay.
Parental cell lines were obtained from the Cancer Cell Line Encyclopedia (CCLE) project (1). PRISM cell line barcoding, pooling, and screening was performed as previously described with several improvements to the original method (2). First, the lentiviral vector was modified to encode the unique barcode identifier at the end of the puromycin resistance gene. This enables barcodes to be detected using a variant of the mRNA capture and Luminex detection method developed for the L1000 gene expression assay (3). Second, a set of ten inert barcodes were spiked-in to each well of each plate after cell lysis to control for variation in PCR amplification as detailed below.
Luminex technology produced .Ixb files containing data for each Luminex bead observed during detection. These .Ixb files were processed to compute Median Fluorescence Intensity (MFI) values, calculated as the median of the values obtained for all beads corresponding to a single PRISM barcode.
MFI values were log-transformed (log MFI) and used to perform basic quality control. To detect probable screening artifacts, log MFI values were centered to the median log MFI for each cell line on each plate in order to put the measurements from each cell line on the same scale. For each well on each plate, the median of these centered values was then standardized according to the global median and global MAD across all plate wells in the same position. Data from wells with a standardized score of greater than 5 or less than −5 were excluded from all further processing steps.
For each cell line on each plate, the distribution of MFI values observed for the DMSO-treated negative controls was compared to that of the positive controls using a robust form of the Strictly Standardized Mean Difference (SSMD*)′. Specifically, SSMD* was calculated as: […]
Data corresponding to SSMD values less than 2 were removed before calculating cell viability.
The data in the instant disclosure were produced according to two different screening protocols. In the PR500 protocol, ten inert barcodes were spiked-in to each well of each plate after cell lysis. For data produced using the PR500 protocol, normalized MFI (nMFI) values were computed by taking the ratio of each MFI value against the median of the inert barcodes within each well. […]
Cell viability was calculated as the ratio of nMFI to the median of the nMFI from the DMSO-treated negative controls for each cell line on each plate. […] The final viability values were calculated as the median of the batch-corrected cell viabilities from biological replicates for each cell line, compound and dose. […]

[9] = tested on: MDA-MB-468 and ZR51 breast cancer and JHH7 liver cancer cell lines; assay: 5 day cytotoxicity, control cells vs sgRNA knock out of AHR; details: cytotoxicity in control cells compared with AHR sgRNA knock out cells; FIGS. 23 and 24
[10] = tested on: MDA-MB-468 breast cancer cells possessing AHR knockout; assay: dose response in AHR knockout (AHR_sg3) cells; format: cell-based; details: FIG. 17
Excerpt: Biological replicates were averaged and normalized to vehicle control. Dose curves were generated using Graphpad Prism.

[11] = tested on: MDA-MB-468 breast cancer cells; assay: Western immunoblot of treated cells over 24 hours; format: cell-based; details: FIG. 18
Protocol: Adherent cells were washed once with cold 1×PBS (Corning #01018002) and lysed with RIPA buffer (Sigma #R0278) supplemented by protease and phosphatase inhibitors (Sigma). Protein content was quantified using the DC Protein Assay (BioRad #5000111). Samples were reduced with (loading buffer) and boiled at 95° C. before being resolved by SDS gel electrophoresis on 4-20% Tris/glycine gels (Invitrogen). Proteins were transferred using the IBlot2 (Thermo #IB21001) onto the iBlot™ 2 nitrocellulose Transfer Stacks (Thermo #IB23001). The membranes were then blocked in Odyssey Blocking Buffer (Li-COR #927-40000) for one hour, and then probed overnight with primary antibodies diluted in blocking buffer. The following day, membranes were washed 3×5 mins with 1×TBST and then probed with LiCOR Infrared secondary antibodies for 1 hour at room temperature. Membranes were washed an additional 3×5 mins in 1×TBST and then imaged using the LiCOR Imager. […]

[12] = HEK293, read-out: % Inhibition Average at maximal concentration
[13] = antagonist mode dose-response fit
[14] = antagonist mode; HEK293; reference agonist NECA
[15] = CHO-K1; read-out: % Inhibition Average at maximal concentration
[16] = HEK293; read-out: % Inhibition Average at maximal concentration

Sequence of recombinant human Adenosine A2A (FAST-002C) receptor (P29274 whole entry): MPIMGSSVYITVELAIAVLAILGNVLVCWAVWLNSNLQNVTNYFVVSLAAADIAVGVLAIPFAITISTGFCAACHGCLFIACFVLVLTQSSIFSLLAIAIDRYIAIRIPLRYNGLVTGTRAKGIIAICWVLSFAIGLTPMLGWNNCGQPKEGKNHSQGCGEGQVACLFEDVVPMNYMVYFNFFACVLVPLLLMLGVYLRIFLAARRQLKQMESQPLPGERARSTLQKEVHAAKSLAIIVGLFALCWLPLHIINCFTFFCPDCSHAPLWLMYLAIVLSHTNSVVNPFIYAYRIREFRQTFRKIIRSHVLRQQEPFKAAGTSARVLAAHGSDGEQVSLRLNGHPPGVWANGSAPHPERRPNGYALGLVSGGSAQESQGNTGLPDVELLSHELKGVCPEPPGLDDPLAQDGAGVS

inhibition at 10 µM [2, 15] [%]	pIC50 [5]	Hill Coefficient [5]	SMILES	AHR-dependence of the cytotoxic response [3]	CYP1A1-dependence of the cytotoxic response [4]	inhibition [5] [%]	pIC50 [6]	inhibition [6] [%]	Hill Coefficient [6]	cell killing profile in PRISM (578 cancer cell lines)	other results
			COc1ccc(-c2cc(=O)c3cc(OC)ccc3o2)c(OC)c1								interaction with CGS-15943 (3D Synergy plot) [7]: pronounced antagonism to CGS-15943
			CN(C)c1nc2ccc(Cl)cc2c2nc(-c3ccco3)nn12 [BRO-020, 9-chloro-2-(furan-2-yl)-N,N-dimethyl-[1,2,4]triazolo[1,5-c]quinazolin-5-amine]			9.09	7.14	81.1	0.83		inhibition at 10 µM [1, 12]: 18.4%; inhibition at 10 µM ([2]; CHO-K1, read-out: % Inhibition Average at maximal concentration): 8.55%
			Nc1nc2c(cnn2CCc2ccccc2)c2nc(-c3ccco3)nn12 [SCH-58261]	dependence upon AHR	CYP1A1-dependent cytotoxic					cell killing profile specific for such FOXA1-dependent cancer cell lines	cytotoxicity to breast cancer cell lines [8]: cytotoxic; pKi (A3 receptors): < 5.00
			Cc1ccc2cc3c(ccc4ccccc43)c3c2c1CC3 [3-Methylcholanthrene, reference compound]								AHR-dependence of the cytotoxic response [9]: dependence upon AHR; CYP1A1-dependence of the cytotoxic response ([4]; control MDA-MB-231 compared with cells overexpressing CYP1A1): CYP1A1-dependent cytotoxic
			O=C(Cc1ccccc1)Nc1nc2ccc(Cl)cc2c2nc(-c3ccco3)nn12 [MRS-1220, reference compound]	dependence upon AHR	CYP1A1-dependent cytotoxic					cell killing profile specific for such FOXA1-dependent cancer cell lines	cytotoxicity to breast cancer cell lines [8]: cytotoxic
			Cc1cc(-c2nc3cc(F)ccc3s2)ccc1NC(=O)[C@@H](N)CCCCN.Cl.Cl [Phortress]							more broadly cytotoxic	rescue of killing by AHR knockout ([10]; 10 μM): AHR knockout did not rescue cells from Phortress killing; cytotoxicity at high doses ([10]; AHR knockout cells): non-specific cytotoxicity at high doses; CYP1A1 expression ([11]; 24 hour time course): induced CYP1A1 expression; FOXA1 levels ([11]; 24 hour time course): maintenance of FOXA1 levels; DNA double stranded breaks (pH2A.X) and PARP cleavage ([11]; within 24 hours): induced DNA double stranded breaks
29.5	5.60	1.39	Clc1ccc2ncn3nc(-c4ccco4)nc3c2c1 [BRO-022, 9-chloro-2-(furan-2-yl)-[1,2,4]triazolo[1,5-c]quinazoline]			97.8	6.77	101	1.06		inhibition at 10 µM [1, 16]: 60.7%
31	5.67	1.80	C=C1Nc2ccccc2-c2nc(-c3ccco3)nn21	dependence upon AHR	CYP1A1-dependent cytotoxic	109	6.31	96.1	1.17		inhibition at 10 µM [1, 16]: 99.2%; Hill Coefficient [1, 13]: 1.72; pIC50 [1, 14]: 5.88

SMILES	inhibition at 10 µM [2, 15] [%]	pIC50 [5]	Hill Coefficient [5]	AHR-dependence of the cytotoxic response [3]	CYP1A1-dependence of the cytotoxic response [4]	inhibition [5] [%]	pIC50 [6]	inhibition [6] [%]	Hill Coefficient [6]	cell killing profile in PRISM (578 cancer cell lines)	other results
Cc1ccc(-c2nc3c4cc(Cl)ccc4nc(N)n3n2)o1 [BRO-013]	74.2	6.94	1.76	dependence upon AHR	CYP1A1-dependent cytotoxic	110	8.10	107	1.18		inhibition at 10 µM [1, 12]: 112%; Hill Coefficient [1, 13]: 1.39; pIC50 [1, 14]: 7.57; Hill Coefficient [2, 13]: 1.04; pIC50 ([2]; antagonist mode; CHO-K1; reference agonist IB-MECA): 6.14

Source: patent publication US12358918B2, “Aryl hydrocarbon receptor (AHR) activator compounds as cancer therapeutics” (THE BROAD INSTITUTE, INC., priority 2018, dated 2025)
